Experimental data reported in patent US20100298434A1, “NEUROPROTECTION AND PREVENTION OF DOPAMINERGIC CELL DEATH BY TARGETING NUR77 TRANSLOCATION” (priority 2009, published 2010).

Legend:
PC12 cells = assay: LDH cytotoxicity in PC12 cells; assay type: cell-based
Description: They were cultured on Primaria 6-well plates (BD Falcon, Ontario, Canada) for RT-PCR experiments and immunoblotting; on Primaria 96-wells plates for LDH cytoxicity experiments and finally on poly-L-lysine-coated circular glass coverslips for immunocytofluorescence assays. Cells were fed fresh medium every 3 days and maintained at 37° C. in a humidified 5% CO2 atmosphere. […] Control conditions were without toxin.
Briefly, media were collected and centrifuged at 800×g at 4° C. for 2 min. The cell-free supernatant (100 μl) was then used to determine LDH activity by measuring the absorbance at a wavelength of 490 nm (A490) on a microplate reader (Multiscan Ascent Microplate reader, Thermolab System, Franklin Mass.) according to the working procedures of Roche's protocol. Total cellular LDH was determined by lysing cells with 1% Triton X-100.

Nur77 = Nur77 subcellular distribution (nuclei-cytoplasmic fractioning, Western blot) in PC12 cells; assay type: cell-based, rat
Description: PC12 cells were obtained from ATCC CRL 1721 (VA, USA) and were grown in phenol red-free RPMI 1640 medium supplemented with 5% fetal calf serum (FCS), 10% horse serum and gentamicin (50 μg/ml). They were cultured on Primaria 6-well plates (BD Falcon, Ontario, Canada) for RT-PCR experiments and immunoblotting; on Primaria 96-wells plates for LDH cytoxicity experiments and finally on poly-L-lysine-coated circular glass coverslips for immunocytofluorescence assays. Cells were fed fresh medium every 3 days and maintained at 37° C. in a humidified 5% CO2 atmosphere. […] Control conditions were without toxin. […] For the present study, kinetic time periods were: 0 h, 3 h, 6 h, 9 h, 12 h and 24 h. After each experiment, culture medium was harvested for cytotoxicity detection and cells were collected for RT-PCR and ICF/Fractioning (Gelinas & Martinoli 2002; Gagne et al. 2003; Gelinas et al. 2004; Chiasson et al. 2006).
PC12 cells were grown and treated in 6-wells plates. We used a nuclear extraction kit (Active Motif, Carlsbad, Calif.) to separate cytoplasmic protein content from nuclear protein content. Briefly, cells were washed in wells with a mixture of PBS and phosphatase inhibitors, and then harvested in centrifuge tubes. Hypotonic buffer swelled cytoplasmic membrane, which an afterward mild detergent ruptured.
Centrifugation at 14,000×g pelleted the intact nuclei, and soluble material was preserved as the cytoplasmic fraction. Nuclei were the lysed with the provided lysis buffer. Protein dosage was performed with a bicinchoninic acid (BCA)-based SDS-compatible Protein Assay Kit (Pierce, Rockfort, Ill.) on each fraction of each sample.
Equal amounts of nuclei or cytoplasmic protein fractions were loaded onto a 10% polyacrylamide-SDS gel. After electrophoretic separation (180 volts, 45 min.) the polyacrylamide gels were transferred onto […] (PVDF) membranes (0.22 μm pore size, Bio-Rad) at 50 V for 2 h. The membranes were blocked with 5% non-fat powder milk for 1 h. […] Quantitative analysis was performed with the Fluor Chem SP software.

nigral TH neurons = assay: MPTP lesions in mice, stereological counts of TH-immunoreactive neurons; assay type: in vivo; details: Nur77 (+/+) mice, 7 i.p. injections MPTP-HCl 20 mg/kg, 14 days after last injection
From the text: Wild-type (Nur77(+/+)) male (C57BL/6, weighing 20-25 g) mice were purchased from Charles River, Canada. Nur77 knockout (Nur77(−/−)) mice were developed and graciously provided by Dr Jeff Milbrandt at the Washington University, St. Louis, Mo., USA (Lee et al., 1995). These mice are healthy and reproduce normally (Crawford et al., 1995; Lee et al., 1995). They were produced in a mixed background and have been backcrossed into the C57BL/6 strain for at least ten generations to reduce genetic background heterogeneity (Jeff Milbrandt, personal communication). We maintain a Nur77(−/−) mouse colony at the animal care facility of our research center. Young adult Nur77(−/−) male mice weighing 20-25 g were used for present experiments. All mice were housed three or four per cage in a temperature-controlled environment and maintained under a 12-h light-dark cycle with ad libitum access to food and water.
In total, 17 mice (8 Nur77 (+/+) and 9 Nur77 (−/−)) received seven intraperitoneal (i.p.) injections of MPTP-HCl (20 mg/kg free base; Sigma, St. Louis, Mo.) dissolved in NaCl 0.9%. MPTP was administered twice on the first 2 days of the experimental protocol at an interval of 12 h and once a day on 3 subsequent days (Tremblay et al. 2006; Gibrat et al., 2010). […]
The loss of DA neurons was determined by counting TH-immunoreactive cells under bright-field illumination. […]

CC/C=C\C/C=C\C/C=C\C/C=C\C/C=C\C/C=C\CCC(=O)O [DHA, docosahexaenoic acid]
cytotoxicity induced by 6-OHDA (PC12 cells; PC12 cells, 6-OHDA 30 μM, co-incubation with DHA 10^−6 M): significantly reduced | cytotoxicity induced by MPP+ (PC12 cells; PC12 cells, MPP+ 5 mM, co-incubation with DHA 10^−6 M): significantly reduced

CCC(=C/[C@H](C)C/C=C/C(C)=C/[C@@H](C)C(=O)[C@@H](C)[C@H](O)[C@@H](C)C/C(C)=C/C(=O)O)/C=C/[C@@H]1OC(=O)C=C[C@@H]1C [LMB, leptomycin B]
6-OHDA-induced translocation of Nur77 from the nucleus to the cytosol (Nur77; 6-OHDA 30 μM, co-incubation with LMB 1 nM): blocked | PC12 cell survival (PC12 cells; LMB alone): no effect | 6-OHDA induced cell death (PC12 cells; PC12 cells, co-incubation of LMB with 6-OHDA, 24 h): significant reduction

C[n+]1ccc(-c2ccccc2)cc1 [MPP+, 1-methyl-4-phenylpyridinium ion]
beginning of Nur77 protein translocation from the nucleus to the cytosol (Nur77; MPP+ 5 mM): 6 h

CN1CC=C(c2ccccc2)CC1 [MPTP, 1-methyl-4-phenyl-1,2,3,6-tetrahydropyridine]
number of nigral TH neurons (nigral TH neurons): significantly reduced
